Measured values reported in US20170275270A1, “BENZYL SUBSTITUTED INDAZOLES” (Bayer Pharma Aktiengesellschaft, priority 2014, published 2017).
Counter-ions that a name gives are not always drawn. Like-named read-outs stand apart in the source and are kept apart here.

Tests used:
[1] = biological target: T1, catalytic domain of human Bub1 (amino acids 704-1085) (Homo sapiens, UniProt O43683); experiment: Bub1 kinase assay (TR-FRET); format: biochemical
T1 construct: catalytic domain of human Bub1 (amino acids 704-1085); His6 (N); made in house; host or cells: Hi5 insect cells
T1 sequence (O43683 704-1085): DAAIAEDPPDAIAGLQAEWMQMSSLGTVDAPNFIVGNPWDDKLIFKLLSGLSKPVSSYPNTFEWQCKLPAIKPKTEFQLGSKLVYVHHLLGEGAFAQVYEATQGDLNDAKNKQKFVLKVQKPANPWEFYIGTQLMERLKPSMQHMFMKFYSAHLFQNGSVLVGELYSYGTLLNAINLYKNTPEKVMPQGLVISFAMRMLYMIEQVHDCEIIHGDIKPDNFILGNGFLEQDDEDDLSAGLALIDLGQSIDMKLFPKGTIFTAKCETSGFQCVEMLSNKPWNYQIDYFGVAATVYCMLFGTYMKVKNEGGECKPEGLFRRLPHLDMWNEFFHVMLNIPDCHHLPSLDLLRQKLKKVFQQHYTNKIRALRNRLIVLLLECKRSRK
Method in brief: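 Compounds from 2 mM DMSO stocks, serially diluted 1:3.4, incubated with enzyme at 22° C for 60 min. Stopped with EDTA, then 1 h with streptavidin-XL665, anti-phosphoserine antibody and Eu-labelled anti-mouse IgG. Phosphorylated biotin-peptide read by TR-FRET; IC50 by 4-parameter logistic fit.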

Bub1 = Bub1 (Homo sapiens, UniProt O43683); experiment: Formation-Assay: phosphorylation status of histone 2A by inhibition of kinase activity of Bub1; format: cell-based; conditions: Biological Assay 4.1: H2A Formation IC50, co-treatment with Nocodazole 1 μg/ml, 16 h
Sequence of Bub1 (O43683 whole entry): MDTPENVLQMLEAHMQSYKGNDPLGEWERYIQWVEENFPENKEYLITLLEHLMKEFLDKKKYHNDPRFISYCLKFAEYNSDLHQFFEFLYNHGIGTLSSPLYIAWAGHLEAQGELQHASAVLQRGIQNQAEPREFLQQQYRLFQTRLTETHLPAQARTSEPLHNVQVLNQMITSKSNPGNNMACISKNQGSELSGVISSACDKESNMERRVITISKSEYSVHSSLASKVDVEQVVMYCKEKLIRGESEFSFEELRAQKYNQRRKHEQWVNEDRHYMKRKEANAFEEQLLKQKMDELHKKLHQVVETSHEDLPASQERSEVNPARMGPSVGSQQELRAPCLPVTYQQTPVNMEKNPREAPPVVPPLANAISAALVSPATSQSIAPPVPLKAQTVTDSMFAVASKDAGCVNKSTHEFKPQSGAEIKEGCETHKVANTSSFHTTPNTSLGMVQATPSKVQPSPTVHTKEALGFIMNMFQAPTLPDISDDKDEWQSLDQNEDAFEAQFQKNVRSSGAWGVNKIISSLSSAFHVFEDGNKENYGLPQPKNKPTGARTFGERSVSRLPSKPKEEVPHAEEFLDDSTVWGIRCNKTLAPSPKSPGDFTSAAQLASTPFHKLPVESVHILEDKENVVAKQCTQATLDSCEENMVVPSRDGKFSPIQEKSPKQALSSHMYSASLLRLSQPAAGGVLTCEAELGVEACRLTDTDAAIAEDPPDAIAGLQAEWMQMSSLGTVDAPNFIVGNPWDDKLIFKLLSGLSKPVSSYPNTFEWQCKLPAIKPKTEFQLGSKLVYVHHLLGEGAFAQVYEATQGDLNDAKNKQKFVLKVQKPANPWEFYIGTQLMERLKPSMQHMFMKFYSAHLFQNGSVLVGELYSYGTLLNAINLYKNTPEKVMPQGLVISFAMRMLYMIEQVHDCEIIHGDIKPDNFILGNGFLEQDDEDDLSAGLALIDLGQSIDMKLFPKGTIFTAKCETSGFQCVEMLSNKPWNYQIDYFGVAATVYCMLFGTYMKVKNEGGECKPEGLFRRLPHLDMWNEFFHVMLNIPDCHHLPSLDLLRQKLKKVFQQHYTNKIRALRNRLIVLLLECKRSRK
Method in brief: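 Cells co-treated 16 h with Nocodazole (1 μg/ml) and compound (3 nM–10 μM), then fixed and immunostained for phospho-H2A, read by infrared imaging (800 nm) normalised to cell stain (700 nm). Nocodazole-only set as 100%, untreated cells as 0%.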

HeLa = experiment: Proliferation assay (HeLa cell line); conditions: Homo sapiens, 96 h, read-out: Biological Assay 2: Proliferation assay (HeLa cell line) median IC50;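 further: crystal violet staining of cell number, scaled between a plate stained before dosing (0%) and cells left untreated (100%), compounds tested at 0.001-10 µM, IC50 via 4-parameter fit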
[2] = tested on: HeLa human cervical tumor cells; experiment: Proliferation assay (HeLa+Paclitaxel); conditions: read-out: Biological Assay 3: HeLa + Paclitaxel IC50, 3 nM paclitaxel, crystal violet;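 further: compounds at 0.001-10 µM added 4 h after paclitaxel, 92 h exposure, absorbance normalized to zero-point plate (0%) and untreated cells (100%), IC50 from 4-parameter fit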
[3] = Biological Assay 1: Bub1 kinase assay median IC50, 10 μM ATP
[4] = 10 μM ATP, read-out: Biological Assay 1: Bub1 kinase assay median IC50

Compound | IC50 [1, 3] [nM] | IC50 (Bub1) [nM] | IC50 (HeLa) [nM] | IC50 [2] [nM] | IC50 [1, 4] [nM]
CCOc1cc(F)c(Cn2nc(-c3ncc(C4CCN(CC(F)(F)F)CC4)c(Nc4ccnc(C)c4)n3)c3ccccc32)c(F)c1 [Example 2-20-5, 2-[1-(4-ethoxy-2,6-difluorobenzyl)-1H-indazol-3-yl]-N-(2-methylpyridin-4-yl)-5-[1-(2,2,2-trifluoroethyl)piperidin-4-yl]pyrimidin-4-amine] | 68 | 0.5 | 3600 | 210 | –
Cc1nccc(Nc2nc(-c3nn(Cc4c(F)cc(OCCO)cc4F)c4ccccc34)ncc2C2CCN(CC3CC3)CC2)n1 [Example 2-6-23, 2-{4-[(3-{5-[1-(cyclopropyl-methyl)piperidin-4-yl]-4-[(2-methylpyrimidin-4-yl)amino]pyrimidin-2-yl}-1H-indazol-1-yl)methyl]-3,5-difluorophenoxy} ethanol] | 82 | 12 | 3000 | 64 | –
CCOc1cc(F)c(Cn2nc(-c3ncc(OCCS(C)(=O)=O)c(Nc4ccncc4)n3)c3ccccc32)c(F)c1 [Example 3-3-1, 2-[1-(4-ethoxy-2,6-difluorobenzyl)-1H-indazol-3-yl]-5-[2-(methylsulfonyl)ethoxy]-N-(pyridin-4-yl)pyrimidin-4-amine, reference compound] | 5.9 | 500 | 4100 | 1100 | –
CCOc1cc(F)c(Cn2nc(-c3nc4c(c(Nc5ccnc(NC(C)=O)c5)n3)CC(C)(C)C4)c3ccccc32)c(F)c1 [Example 2-12-65, N-[4-({2-[1-(4-ethoxy-2,6-difluorobenzyl)-1H-indazol-3-yl]-6,6-dimethyl-6,7-dihydro-5H-cyclopenta[d]pyrimidin-4-yl}amino)pyridin-2-yl]acetamide] | 22 | 3.3 | > 10000 | 110 | –
CCOc1cc(F)c(Cn2nc(-c3nc4c(c(Nc5ncncn5)n3)CCC4)c3ccccc32)c(F)c1 [Example 2-12-52, 2-[1-(4-ethoxy-2,6-difluorobenzyl)-1H-indazol-3-yl]-N-(1,3,5-triazin-2-yl)-6,7-dihydro-5H-cyclopenta[d]pyrimidin-4-amine] | – | 25 | 1100 | 990 | 100
CCOc1cc(F)c(Cn2nc(-c3ncc(C4CCN(CC(F)(F)F)CC4)c(Nc4ccnc(C)n4)n3)c3ccccc32)c(F)c1 [Example 2-20-2, 2-[1-(4-ethoxy-2,6-difluorobenzyl)-1H-indazol-3-yl]-N-(2-methylpyrimidin-4-yl)-5-[1-(2,2,2-trifluoroethyl)piperidin-4-yl]pyrimidin-4-amine] | 51 | 9.1 | > 10000 | 260 | –
CCOc1cc(F)c(Cn2nc(-c3nc(Nc4ccncc4OC)cc(C(F)(F)F)n3)c3ccccc32)c(F)c1 [Example 2-12-81, 2-[1-(4-ethoxy-2,6-difluorobenzyl)-1H-indazol-3-yl]-N-(3-methoxypyridin-4-yl)-6-(trifluoromethyl)pyr-imidin-4-amine] | – | 13 | 1600 | 220 | 19
CCOc1cc(F)c(Cn2nc(-c3ncc4c(n3)N(c3ccncc3)C[C@H]4CNCC(F)(F)F)c3ccccc32)c(F)c1 [Example 2-11-3, N-({2-[1-(4-ethoxy-2,6-difluorobenzyl)-1H-indazol-3-yl]-7-(pyridin-4-yl)-6,7-dihydro-5H-pyrrolo[2,3d]pyr-imidin-5-yl}methyl)-2,2,2-trifluoroethanamine] | 12 | 93 | 3000 | 100 | –
CCOc1cc(F)c(Cn2nc(-c3nc(COC)cc(Nc4ccnc(NC(C)=O)c4)n3)c3ccccc32)c(F)c1 [Example 2-12-20, N-[4-({2-[1-(4-ethoxy-2,6-difluorobenzyl)-1H-indazol-3-yl]-6-(methoxymethyl)pyr-imidin-4-yl}amino)pyridin-2-yl]acetamide] | 5.3 | 2.9 | 2800 | 330 | –
OCCOc1cc(F)c(Cn2nc(-c3nc4c(c(Nc5ccncn5)n3)CCC4)c3ccccc32)c(F)c1 [Example 2-6-19, 2-[3,5-difluoro-4-({3-[4-(pyrimidin-4-ylamino)-6,7-dihydro-5H-cyclopenta[d]pyrimidin-2-yl]-1H-indazol-1-yl}methyl)phenoxy]ethanol] | 8.9 | 2.6 | > 10000 | 140 | –
CCOc1cc(F)c(Cn2nc(-c3nc(CN4CCOCC4)cc(Nc4ccncn4)n3)c3ccccc32)c(F)c1 [Example 2-12-47, 2-[1-(4-ethoxy-2,6-difluorobenzyl)-1H-indazol-3-yl]-6-(morpholin-4-ylmethyl)-N-(pyrimidin-4-yl)pyrimidin-4-amine] | – | 2100 | 6100 | 68 | 5.2
COCc1cc(Nc2ccncc2C)nc(-c2nn(Cc3c(F)cc(OCCO)cc3F)c3ccccc23)n1 [Example 2-12-50, 2-{3,5-difluoro-4-[(3-{4-(methoxymethyl)-6-[(3-methylpyridin-4-yl)amino]pyrimidin-2-yl}-1H-indazol-1-yl)methyl]phenoxy}eth-anol] | 5.4 | 23 | 970 | 1300 | –
CCOc1cc(F)c(Cn2nc(-c3nc(CN4CCOCC4)cc(Nc4ccncc4C)n3)c3ccccc32)c(F)c1 [Example 2-12-13, 2-[1-(4-ethoxy-2,6-difluorobenzyl)-1H-indazol-3-yl]-N-(3-methylpyridin-4-yl)-6-(morpholin-4-ylmethyl)pyrimidin-4-amine] | – | 6.6 | 3400 | 89 | 6
CCOc1cc(F)c(Cn2nc(-c3nc4c(c(Nc5ccnc(C)c5)n3)CN(CC)CC4)c3ccccc32)c(F)c1 [Example 2-15-2, 2-[1-(4-ethoxy-2,6-difluorobenzyl)-1H-indazol-3-yl]-6-ethyl-N-(2-methylpyridin-4-yl)-5,6,7,8-tetrahydropyrido[4,3-d]pyrimidin-4-amine] | 47 | 39 | > 10000 | 45 | –
OCCOc1cc(F)c(Cn2nc(-c3nc4c(c(Nc5ccnnc5)n3)CCC4)c3ccccc32)c(F)c1 [Example 2-4-10, 2-[3,5-difluoro-4-({3-[4-(pyridazin-4-ylamino)-6,7-dihydro-5H-cyclopenta[d]pyrimidin-2-yl]-1H-indazol-1-yl}methyl)phenoxy]ethanol, salt with hydrochloric acid] | 18 | 10 | > 10000 | 1200 | –
CCOc1cc(F)c(Cn2nc(-c3nc(CS(C)(=O)=O)cc(Nc4ccncc4)n3)c3ccccc32)c(F)c1 [Example 2-3-4, 2-[1-(4-ethoxy-2,6-difluorobenzyl)-1H-indazol-3-yl]-6-[(methylsulfonyl)methyl]-N-(pyridin-4-yl)pyrimidin-4-amine] | 5.9 | 0.52 | 2100 | 1000 | –
CCOc1cc(F)c(Cn2nc(-c3nc4c(c(Nc5ccnc(C(F)(F)F)c5)n3)CNC4)c3ccccc32)c(F)c1 [Example 2-9-15, 2-[1-(4-ethoxy-2,6-difluorobenzyl)-1H-indazol-3-yl]-N-[2-(trifluoro-methyl)pyridin-4-yl]-6,7-dihydro-5H-pyrrolo[3,4-d]pyrimidin-4-amine, salt with hydrochloric acid] | 3300 | 2.8 | 4000 | 340 | –
CCOc1cc(F)c(Cn2nc(-c3nc4c(c(Nc5ccnnc5)n3)CCC4)c3ccccc32)c(F)c1 [Example 2-14-5, 2-[1-(4-ethoxy-2,6-difluorobenzyl)-1H-indazol-3-yl]-N-(pyridazin-4-yl)-6,7-dihydro-5H-cyclopenta[d]pyrimidin-4-amine] | – | 2.7 | 3600 | 540 | 16
CCOc1cc(F)c(Cn2nc(-c3nc(CC)cc(Nc4ccncc4)n3)c3ccccc32)c(F)c1 [Example 2-12-9, 2-[1-(4-ethoxy-2,6-difluorobenzyl)-1H-indazol-3-yl]-6-ethyl-N-(pyridin-4-yl)pyrimidin-4-amine] | 21 | 11 | 3700 | 540 | –
Cc1nccc(Nc2nc(-c3nn(Cc4c(F)cc(OCCO)cc4F)c4ccccc34)nc3c2CC(C)(C)C3)n1 [Example 2-6-22, 2-{4-[(3-{6,6-dimethyl-4-[(2-methylpyrimidin-4-yl)amino]-6,7-dihydro-5H-cyclopenta[d]pyrimidin-2-yl}-1H-indazol-1-yl)methyl]-3,5-difluorophenoxy} ethanol] | 81 | 180 | 9200 | 99 | –
CCOc1cc(F)c(Cn2nc(-c3ncc(CCNCC(F)(F)F)c(Nc4ccncc4Cl)n3)c3ccccc32)c(F)c1 [Example 2-20-14, N-(3-chloropyridin-4-yl)-2-[1-(4-ethoxy-2,6-difluorobenzyl)-1H-indazol-3-yl]-5-{2-[(2,2,2-trifluoroethyl)amino]ethyl}pyrimidin-4-amine] | 48 | 2.6 | > 10000 | 120 | –
